Assays:
[1] = molecular target: T1, hA2A receptors (Homo sapiens, UniProt P29274); test: radioligand binding to human A2A receptors, HEK-293 membranes; details: average of duplicate experiments
T1 construct: purchased PerkinElmer RBHA2AM
Description: The binding affinities of synthesized compounds to human A2A receptors (hA2AR) were measured by assessing competitive binding of ligands to radioligand […] using membrane preparations of human recombinant HEK-293 cells expressing human A2A receptors.
The radioligand-binding assays for adenosine receptors were performed at Eurofins Discovery Services (Panlabs, Taiwan). Briefly, stock solutions of the compounds were prepared in DMSO and further diluted with the incubation buffer to the desired concentration. Final DMSO concentrations in the assay were 1.0%. […] Nonspecific binding was estimated in the presence of 100 μM R(-)-PIA. Membranes were filtered and washed 3 times and the filters were counted to determine specifically bound [^3H]DPCPX. Chemical compounds were screened at 10 μM. […] Nonspecific binding was estimated in the presence of 50.0 μM NECA. […] Nonspecific binding was estimated in the presence of 100 μM NECA. Membranes were filtered and washed 3 times and the filters were counted to determine [^3H]MRS1754 specifically bound. […] Nonspecific binding was estimated in the presence of 1.0 μM IB-MECA.
IC50 values were determined by a nonlinear, least-squares regression analysis using MathIQ^TM (ID Business Solutions Ltd., Guildford, UK). […] The Hill coefficient (nH), which defines the slope of the competitive binding curve, was calculated using MathIQ^TM.

[2] = molecular target: T2, hA1 receptor (Homo sapiens, UniProt P30542); test: radioligand binding to human A1 receptors, CHO-K1 membranes, [3H]DPCPX; details: average of duplicate experiments
T2 sequence (P30542 1-326): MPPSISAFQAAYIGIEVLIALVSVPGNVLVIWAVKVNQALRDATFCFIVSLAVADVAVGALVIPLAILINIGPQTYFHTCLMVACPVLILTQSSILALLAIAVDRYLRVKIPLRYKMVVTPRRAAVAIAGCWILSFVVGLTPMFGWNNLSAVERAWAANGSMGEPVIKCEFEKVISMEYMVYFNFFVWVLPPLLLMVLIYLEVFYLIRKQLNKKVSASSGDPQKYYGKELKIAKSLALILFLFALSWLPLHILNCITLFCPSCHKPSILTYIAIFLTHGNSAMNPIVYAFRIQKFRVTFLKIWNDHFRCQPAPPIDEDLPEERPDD
Description: The radioligand-binding assays for adenosine receptors were performed at Eurofins Discovery Services (Panlabs, Taiwan). Briefly, stock solutions of the compounds were prepared in DMSO and further diluted with the incubation buffer to the desired concentration. Final DMSO concentrations in the assay were 1.0%. For adenosine A1 screening, a 10 μg aliquots of membrane preparations from human recombinant CHO-K1 cells stably expressing A1 receptors (CHO-K1-hA1AR clone3, EPDST, R200510) were incubated with 1 nM [^3H]DPCPX in incubation buffer (20 mM HEPES, pH 7.4, 10 mM MgCl2, 100 mM NaCl 1.40 nM) for 90 min at 25 °C. Nonspecific binding was estimated in the presence of 100 μM R(-)-PIA. Membranes were filtered and washed 3 times and the filters were counted to determine specifically bound [^3H]DPCPX. Chemical compounds were screened at 10 μM. For A2A screening, membrane preparations from human recombinant HEK-293 cells stably expressing A2A receptors (PerkinElmer, RBHA2AM) were incubated with 0.05 μM [^3H]CGS-21680 in incubation buffer (50 mM Tris-HCl, pH 7.4, 10 mM MgCl2, 1 mM EDTA, 2 U/mL Adenosine Deaminase) for 90 min at 25 °C. Nonspecific binding was estimated in the presence of 50.0 μM NECA. Membranes were filtered and washed 3 times and the filters were counted to determine [^3H]CGS-21680 specifically bound. For A2B screening, membrane preparations from human recombinant HEK-293 cells stably expressing A2B receptors (PerkinElmer, ES-013-M) were incubated with 1.6 nM [^3H]MRS1754 in incubation buffer (50 mM Tris-HCl, pH 6.5, 5 mM MgCl2, 1 mM EDTA, 0.01 % Bacitracin) for 90 min at 25 °C. Nonspecific binding was estimated in the presence of 100 μM NECA. Membranes were filtered and washed 3 times and the filters were counted to determine [^3H]MRS1754 specifically bound. For A3 screening, membrane preparations from human recombinant CHO-K1 cells stably expressing A3 receptors (PerkinElmer, ES-012-M) were incubated with 0.5 nM [^125I]AB-MECA in incubation buffer (25 mM HEPES, pH 7.4, 5 mM MgCl2, 1 mM CaCl2, 0.1 % BSA) for 60 min at 25 °C. Nonspecific binding was estimated in the presence of 1.0 μM IB-MECA.
IC50 values were determined by a nonlinear, least-squares regression analysis using MathIQ^TM (ID Business Solutions Ltd., Guildford, UK). Where inhibition constants (Ki) were presented, the Ki values were calculated using Cheng and Prusoff equation [18] using the observed IC50 of the compound, the concentration of radioligand employed in the assay, and the historical values for the KD of the ligand (obtained experimentally at Eurofins Panlabs, Inc.). The Hill coefficient (nH), which defines the slope of the competitive binding curve, was calculated using MathIQ^TM.

[3] = solubility (qualitative); assay type: physicochemical; details: CF3 next to aniline, difficulties in forming salt

T1 sequence (P29274 whole entry): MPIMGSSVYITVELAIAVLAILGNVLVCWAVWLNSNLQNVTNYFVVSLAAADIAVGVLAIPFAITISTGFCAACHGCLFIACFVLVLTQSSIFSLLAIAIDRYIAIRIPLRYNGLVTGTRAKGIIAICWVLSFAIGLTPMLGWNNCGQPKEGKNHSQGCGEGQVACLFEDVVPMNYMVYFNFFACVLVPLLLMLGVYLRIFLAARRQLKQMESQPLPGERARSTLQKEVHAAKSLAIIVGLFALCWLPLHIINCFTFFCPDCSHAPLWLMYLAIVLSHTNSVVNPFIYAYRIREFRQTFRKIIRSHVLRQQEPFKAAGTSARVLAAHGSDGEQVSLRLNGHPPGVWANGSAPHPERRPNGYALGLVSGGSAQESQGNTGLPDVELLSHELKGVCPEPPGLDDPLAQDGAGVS

Row | Ki [1] | Ki [2] | solubility (in words) [3] | SMILES
1 | 16.4 nM | – | – | N#Cc1cccc(-c2nc(N)nc3c2cnn3Cc2ccc(N)cc2)c1 [4a, 3-(6-Amino-1-(4-aminobenzyl)-1H-pyrazolo[3,4-d]pyrimidin-4-yl)benzonitrile]
2 | 19.4 nM | – | – | N#Cc1cccc(-c2nc(N)nc3c2cnn3Cc2ccc(N)cc2)c1F [4b, 3-(6-Amino-1-(4-aminobenzyl)-1H-pyrazolo[3,4-d]pyrimidin-4-yl)-2-fluorobenzonitrile]
3 | 310 nM | 2470 nM | – | N#Cc1ccnc(-c2nc(N)nc3c2cnn3Cc2ccc(N)cc2)c1 [11a, 2-(6-Amino-1-(4-aminobenzyl)-1H-pyrazolo[3,4-d]pyrimidin-4-yl)isonicotinonitrile]
4 | 31 nM | 650 nM | – | N#Cc1cccc(-c2nc(N)nc3c2cnn3Cc2ccc(N)cc2)n1 [11b, 6-(6-Amino-1-(4-aminobenzyl)-1H-pyrazolo[3,4-d]pyrimidin-4-yl)picolinonitrile]
5 | 4790 nM | 32000 nM | – | N#Cc1cncc(-c2nc(N)nc3c2cnn3Cc2ccc(N)cc2)c1 [11c, 5-(6-Amino-1-(4-aminobenzyl)-1H-pyrazolo[3,4-d]pyrimidin-4-yl)nicotinonitrile]
6 | 4720 nM | 8530 nM | – | N#Cc1cc(-c2nc(N)nc3c2cnn3Cc2ccc(N)cc2)ccn1 [11d, 4-(6-Amino-1-(4-aminobenzyl)-1H-pyrazolo[3,4-d]pyrimidin-4-yl)picolinonitrile]
7 | 120 nM | 710 nM | – | N#Cc1ccnc(-c2nc(N)nc3c2cnn3Cc2ccc(N)cc2F)c1 [11e, 2-(6-Amino-1-(4-amino-2-fluorobenzyl)-1H-pyrazolo[3,4-d]pyrimidin-4-yl)isonicotinonitrile]
8 | 10.6 nM | 160 nM | – | N#Cc1cccc(-c2nc(N)nc3c2cnn3Cc2ccc(N)cc2F)n1 [11f, 6-[6-Amino-1-[(4-amino-2-fluoro-phenyl)methyl]pyrazolo[3,4-d]pyrimidin-4-yl]pyridine-2-carbonitrile]
9 | 2640 nM | 32800 nM | – | N#Cc1cncc(-c2nc(N)nc3c2cnn3Cc2ccc(N)cc2F)c1 [11g, 5-(6-Amino-1-(4-amino-2-fluorobenzyl)-1H-pyrazolo[3,4-d]pyrimidin-4-yl)nicotinonitrile]
10 | 3190 nM | 28000 nM | – | N#Cc1cc(-c2nc(N)nc3c2cnn3Cc2ccc(N)cc2F)ccn1 [11h, 4-(6-Amino-1-(4-amino-2-fluorobenzyl)-1H-pyrazolo[3,4-d]pyrimidin-4-yl)picolinonitrile]
11 | 12.1 nM | 160 nM | – | N#Cc1cccc(-c2nc(N)nc3c2cnn3Cc2ccc(N)cc2F)c1 [11i, 3-(6-Amino-1-(4-amino-2-fluorobenzyl)-1H-pyrazolo[3,4-d]pyrimidin-4-yl)benzonitrile]
12 | 16.4 nM | 63 nM | – | N#Cc1cccc(-c2nc(N)nc3c2cnn3Cc2ccc(N)cc2F)c1F [11j, 3-(6-Amino-1-(4-amino-2-fluorobenzyl)-1H-pyrazolo[3,4-d]pyrimidin-4-yl)-2-fluorobenzonitrile]
13 | 65 nM | 510 nM | – | Cc1cc(Cn2ncc3c(-c4cc(C#N)ccn4)nc(N)nc32)ccc1N [11k, 2-(6-Amino-1-(4-amino-3-methylbenzyl)-1H-pyrazolo[3,4-d]pyrimidin-4-yl)isonicotinonitrile]
14 | 6.39 nM | 180 nM | – | Cc1cc(Cn2ncc3c(-c4cccc(C#N)n4)nc(N)nc32)ccc1N [11l, 6-(6-Amino-1-(4-amino-3-methylbenzyl)-1H-pyrazolo[3,4-d]pyrimidin-4-yl)picolinonitrile]
15 | 2480 nM | 21200 nM | – | Cc1cc(Cn2ncc3c(-c4cncc(C#N)c4)nc(N)nc32)ccc1N [11m, 5-(6-Amino-1-(4-amino-3-methylbenzyl)-1H-pyrazolo[3,4-d]pyrimidin-4-yl)nicotinonitrile]
16 | 1150 nM | 21300 nM | – | Cc1cc(Cn2ncc3c(-c4ccnc(C#N)c4)nc(N)nc32)ccc1N [11n, 4-(6-Amino-1-(4-amino-3-methylbenzyl)-1H-pyrazolo[3,4-d]pyrimidin-4-yl)picolinonitrile]
17 | 47 nM | 380 nM | – | N#Cc1ccnc(-c2nc(N)nc3c2cnn3Cc2c(F)cc(N)cc2F)c1 [11p, 2-[6-Amino-1-[(4-amino-2,6-difluoro-phenyl)methyl]pyrazolo[3,4-d]pyrimidin-4-yl]pyridine-4-carbonitrile]
18 | 6.84 nM | 150 nM | – | N#Cc1cccc(-c2nc(N)nc3c2cnn3Cc2c(F)cc(N)cc2F)n1 [11q, 6-[6-Amino-1-[(4-amino-2,6-difluoro-phenyl)methyl]pyrazolo[3,4-d]pyrimidin-4-yl]pyridine-2-carbonitrile]
19 | 1220 nM | 10000 nM | – | N#Cc1cncc(-c2nc(N)nc3c2cnn3Cc2c(F)cc(N)cc2F)c1 [11r, 5-[6-Amino-1-[(4-amino-2,6-difluoro-phenyl)methyl]pyrazolo[3,4-d]pyrimidin-4-yl]pyridine-3-carbonitrile]
20 | 4920 nM | – | – | N#Cc1cc(-c2nc(N)nc3c2cnn3Cc2c(F)cc(N)cc2F)ccn1 [11s, 4-[6-Amino-1-[(4-amino-2,6-difluoro-phenyl)methyl]pyrazolo[3,4-d]pyrimidin-4-yl]pyridine-2-carbonitrile]
21 | 7.42 nM | 50 nM | – | N#Cc1cccc(-c2nc(N)nc3c2cnn3Cc2c(F)cc(N)cc2F)c1 [11t, 3-[6-Amino-1-[(4-amino-2,6-difluoro-phenyl)methyl]pyrazolo[3,4-d]pyrimidin-4-yl]benzonitrile]
22 | 6.45 nM | 30 nM | – | N#Cc1cccc(-c2nc(N)nc3c2cnn3Cc2c(F)cc(N)cc2F)c1F [11u, 3-(6-Amino-1-(4-amino-2,6-difluorobenzyl)-1H-pyrazolo[3,4-d]pyrimidin-4-yl)-2-fluorobenzonitrile]
23 | 10.2 nM | 250 nM | greatly reduced solubility | N#Cc1ccnc(-c2nc(N)nc3c2cnn3Cc2ccc(N)c(C(F)(F)F)c2)c1 [11v, 2-[6-Amino-1-[[4-amino-3-(trifluoromethyl)phenyl]methyl]pyrazolo[3,4-d]pyrimidin-4-yl]pyridine-4-carbonitrile]
24 | 1.94 nM | 49 nM | greatly reduced solubility | N#Cc1cccc(-c2nc(N)nc3c2cnn3Cc2ccc(N)c(C(F)(F)F)c2)c1 [11w, 3-(6-Amino-1-(4-amino-3-(trifluoromethyl)benzyl)-1H-pyrazolo[3,4-d]pyrimidin-4-yl)benzonitrile]
25 | – | 610 nM | – | CCn1c(=O)c2c(nc(/C=C/c3ccc(OC)c(OC)c3)n2C)n(CC)c1=O [Istradefylline, reference compound]
26 | 11.1 nM | 110 nM | – | Cc1cc(Cn2ncc3c(-c4cccc(C#N)c4)nc(N)nc32)ccc1N [compound 8, 3-(6-Amino-1-(4-amino-3-methylbenzyl)-1H-pyrazolo[3,4-d]pyrimidin-4-yl)benzonitrile]

Reference: article PMC9394284, “Discovery of Novel Dual Adenosine A2A and A1 Receptor Antagonists with 1H-Pyrazolo[3,4-d]pyrimidin-6-amine Core Scaffold as Anti-Parkinson’s Disease Agents” (Pharmaceuticals, 2022)
